Results published in ChEMBL document CHEMBL1909046, “DrugMatrix in vitro pharmacology data”.

Biological target: Receptor tyrosine-protein kinase erbB-2 (Homo sapiens, UniProt P04626);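 also: inhibition of HER2 kinase enzyme activity, measured with Poly(Glu:Tyr) as the phosphorylation substrate; in other assays of this panel Not Active means under 50% inhibition at 10 µM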
Experiment: biochemical
Type: cell-based, Insect cells
Conditions: insect cells

Sequence of Receptor tyrosine-protein kinase erbB-2 (P04626 whole entry): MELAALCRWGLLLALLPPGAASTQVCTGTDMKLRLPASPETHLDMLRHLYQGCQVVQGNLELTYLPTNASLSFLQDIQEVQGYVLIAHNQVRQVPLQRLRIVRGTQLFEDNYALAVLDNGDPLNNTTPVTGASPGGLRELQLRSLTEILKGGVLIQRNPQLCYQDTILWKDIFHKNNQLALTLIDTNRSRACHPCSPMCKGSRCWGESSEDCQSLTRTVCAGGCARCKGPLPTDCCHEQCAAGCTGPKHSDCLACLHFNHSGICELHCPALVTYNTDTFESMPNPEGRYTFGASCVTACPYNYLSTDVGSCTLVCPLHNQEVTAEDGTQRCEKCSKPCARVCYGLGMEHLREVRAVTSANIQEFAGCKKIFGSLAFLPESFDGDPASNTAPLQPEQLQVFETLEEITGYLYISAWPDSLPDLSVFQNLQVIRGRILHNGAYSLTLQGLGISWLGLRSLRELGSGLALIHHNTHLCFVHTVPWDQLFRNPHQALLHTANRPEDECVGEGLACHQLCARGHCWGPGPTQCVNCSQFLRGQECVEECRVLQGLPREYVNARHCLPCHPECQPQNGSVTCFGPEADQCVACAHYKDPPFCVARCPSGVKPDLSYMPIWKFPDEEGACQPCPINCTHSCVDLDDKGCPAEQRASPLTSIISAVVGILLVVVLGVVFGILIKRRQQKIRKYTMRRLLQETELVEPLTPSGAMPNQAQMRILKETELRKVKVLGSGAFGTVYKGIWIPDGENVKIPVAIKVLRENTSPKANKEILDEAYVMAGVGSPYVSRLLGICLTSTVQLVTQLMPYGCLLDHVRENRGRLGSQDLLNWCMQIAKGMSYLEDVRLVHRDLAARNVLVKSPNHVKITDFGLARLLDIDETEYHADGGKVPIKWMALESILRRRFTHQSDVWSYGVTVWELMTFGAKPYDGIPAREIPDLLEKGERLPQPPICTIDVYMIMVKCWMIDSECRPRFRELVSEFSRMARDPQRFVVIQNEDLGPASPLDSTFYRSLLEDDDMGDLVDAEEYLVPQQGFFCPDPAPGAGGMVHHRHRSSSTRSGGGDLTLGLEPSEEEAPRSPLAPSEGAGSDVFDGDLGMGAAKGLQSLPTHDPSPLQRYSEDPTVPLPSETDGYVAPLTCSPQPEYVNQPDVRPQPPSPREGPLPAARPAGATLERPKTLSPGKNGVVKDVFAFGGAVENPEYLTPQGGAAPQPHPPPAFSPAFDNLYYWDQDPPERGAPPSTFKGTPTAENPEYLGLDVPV

Compound | IC50
CN[C@@H]1[C@@H](O)[C@@H](O[C@@H]2[C@@H](O)[C@H](O[C@H]3OC(CN)=CC[C@H]3N)[C@@H](N)C[C@H]2N)OC[C@]1(C)O [SISOMICIN] | Not Active
CC(C)(C)NC(=O)[C@@H]1CN(Cc2cccnc2)CCN1C[C@@H](O)C[C@@H](Cc1ccccc1)C(=O)N[C@H]1c2ccccc2C[C@H]1O.O | Not Active
COc1cc(C(=O)NC2CCCNC2)cc(OC)c1OC (centres undefined) [TROXIPIDE] | Not Active

System: not listed separately
Experiment: DRUGMATRIX: GABAA, Flunitrazepam, Central radioligand binding (ligand: [3H] Flunitrazepam)
Type: cell membranes, Rattus norvegicus, Wistar, Brain, Membrane
Conditions: Not Active = under 50% inhibition at 10 µM

Compound | IC50 | Ki
CN[C@@H]1[C@@H](O)[C@@H](O[C@@H]2[C@@H](O)[C@H](O[C@H]3OC(CN)=CC[C@H]3N)[C@@H](N)C[C@H]2N)OC[C@]1(C)O [SISOMICIN] | Not Active | Not Active
CC(C)(C)NC(=O)[C@@H]1CN(Cc2cccnc2)CCN1C[C@@H](O)C[C@@H](Cc1ccccc1)C(=O)N[C@H]1c2ccccc2C[C@H]1O.O | Not Active | Not Active
COc1cc(C(=O)NC2CCCNC2)cc(OC)c1OC (centres undefined) [TROXIPIDE] | Not Active | Not Active

Biological target: 5-hydroxytryptamine receptor 1B (Rattus norvegicus, UniProt P28564); also: in other assays of this panel Not Active means under 50% inhibition at 10 µM
Experiment: not given
Type: cell membranes, Wistar, Cerebral cortex, Membrane
Conditions: not given

Sequence of 5-hydroxytryptamine receptor 1B (P28564 whole entry): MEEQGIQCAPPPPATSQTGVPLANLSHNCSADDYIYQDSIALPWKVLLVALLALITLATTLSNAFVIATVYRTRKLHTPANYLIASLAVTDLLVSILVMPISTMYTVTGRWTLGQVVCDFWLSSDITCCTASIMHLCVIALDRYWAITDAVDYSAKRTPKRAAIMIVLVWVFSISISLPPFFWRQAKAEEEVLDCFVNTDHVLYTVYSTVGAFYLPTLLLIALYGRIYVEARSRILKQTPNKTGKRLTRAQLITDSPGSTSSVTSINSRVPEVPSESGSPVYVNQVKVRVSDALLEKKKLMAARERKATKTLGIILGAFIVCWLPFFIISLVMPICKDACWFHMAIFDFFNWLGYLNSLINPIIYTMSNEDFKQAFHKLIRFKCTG

Compound | IC50
CN[C@@H]1[C@@H](O)[C@@H](O[C@@H]2[C@@H](O)[C@H](O[C@H]3OC(CN)=CC[C@H]3N)[C@@H](N)C[C@H]2N)OC[C@]1(C)O [SISOMICIN] | Not Active
CC(C)(C)NC(=O)[C@@H]1CN(Cc2cccnc2)CCN1C[C@@H](O)C[C@@H](Cc1ccccc1)C(=O)N[C@H]1c2ccccc2C[C@H]1O.O | Not Active
COc1cc(C(=O)NC2CCCNC2)cc(OC)c1OC (centres undefined) [TROXIPIDE] | Not Active

Biological target: Tyrosine-protein kinase Fyn (Homo sapiens, UniProt P06241);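 also: enzymatic inhibition of Fyn kinase activity measured with Poly(Glu:Tyr) as the phosphorylation substrate; in other assays of this panel Not Active means under 50% inhibition at 10 µM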
Experiment: biochemical
Type: cell-based, Insect cells
Conditions: insect cells

Sequence of Tyrosine-protein kinase Fyn (P06241 whole entry): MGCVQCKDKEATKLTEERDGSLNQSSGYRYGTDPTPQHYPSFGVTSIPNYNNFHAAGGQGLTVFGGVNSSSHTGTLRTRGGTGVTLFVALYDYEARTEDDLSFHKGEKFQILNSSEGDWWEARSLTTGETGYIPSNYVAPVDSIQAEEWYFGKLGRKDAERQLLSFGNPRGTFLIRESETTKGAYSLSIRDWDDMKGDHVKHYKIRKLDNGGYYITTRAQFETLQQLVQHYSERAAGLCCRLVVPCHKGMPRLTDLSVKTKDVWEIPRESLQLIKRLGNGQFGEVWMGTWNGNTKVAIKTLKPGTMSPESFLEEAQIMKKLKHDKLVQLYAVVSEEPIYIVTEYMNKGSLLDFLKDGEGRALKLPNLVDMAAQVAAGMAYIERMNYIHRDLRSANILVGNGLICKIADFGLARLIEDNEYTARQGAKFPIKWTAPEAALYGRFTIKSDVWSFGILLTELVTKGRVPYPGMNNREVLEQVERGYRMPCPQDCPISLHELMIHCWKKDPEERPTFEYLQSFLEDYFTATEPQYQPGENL

Compound | IC50
CN[C@@H]1[C@@H](O)[C@@H](O[C@@H]2[C@@H](O)[C@H](O[C@H]3OC(CN)=CC[C@H]3N)[C@@H](N)C[C@H]2N)OC[C@]1(C)O [SISOMICIN] | Not Active
CC(C)(C)NC(=O)[C@@H]1CN(Cc2cccnc2)CCN1C[C@@H](O)C[C@@H](Cc1ccccc1)C(=O)N[C@H]1c2ccccc2C[C@H]1O.O | Not Active
COc1cc(C(=O)NC2CCCNC2)cc(OC)c1OC (centres undefined) [TROXIPIDE] | Not Active

Biological target: T1, Muscarinic acetylcholine receptor M5 (Homo sapiens, UniProt P08912); also: in other assays of this panel Not Active means under 50% inhibition at 10 µM
T1 sequence (P08912 whole entry): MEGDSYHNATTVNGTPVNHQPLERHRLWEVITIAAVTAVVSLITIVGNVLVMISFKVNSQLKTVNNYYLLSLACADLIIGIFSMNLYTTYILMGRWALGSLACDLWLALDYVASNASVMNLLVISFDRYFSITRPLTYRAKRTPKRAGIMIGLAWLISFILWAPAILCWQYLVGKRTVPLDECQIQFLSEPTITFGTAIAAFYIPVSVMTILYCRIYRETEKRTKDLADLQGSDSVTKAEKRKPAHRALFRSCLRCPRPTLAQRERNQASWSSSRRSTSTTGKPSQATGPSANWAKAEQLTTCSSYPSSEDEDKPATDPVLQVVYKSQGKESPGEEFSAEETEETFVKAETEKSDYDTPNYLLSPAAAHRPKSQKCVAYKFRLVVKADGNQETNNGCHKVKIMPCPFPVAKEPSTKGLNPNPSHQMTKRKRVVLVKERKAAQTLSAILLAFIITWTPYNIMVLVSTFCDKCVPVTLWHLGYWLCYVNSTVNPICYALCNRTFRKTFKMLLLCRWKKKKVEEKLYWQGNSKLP
Experiment: not given
Type: cell membranes, CHO-K1, Membrane
Conditions: cho-k1

Compound | IC50
CN[C@@H]1[C@@H](O)[C@@H](O[C@@H]2[C@@H](O)[C@H](O[C@H]3OC(CN)=CC[C@H]3N)[C@@H](N)C[C@H]2N)OC[C@]1(C)O [SISOMICIN] | Not Active
CC(C)(C)NC(=O)[C@@H]1CN(Cc2cccnc2)CCN1C[C@@H](O)C[C@@H](Cc1ccccc1)C(=O)N[C@H]1c2ccccc2C[C@H]1O.O | Not Active
COc1cc(C(=O)NC2CCCNC2)cc(OC)c1OC (centres undefined) [TROXIPIDE] | Not Active

System: not listed separately
Experiment: DRUGMATRIX: Sigma2 radioligand binding (ligand: [3H] Ifenprodil)
Type: cell membranes, Rattus norvegicus, Wistar, Brain, Membrane
Conditions: Not Active = under 50% inhibition at 10 µM

Compound | IC50 | Ki
CN[C@@H]1[C@@H](O)[C@@H](O[C@@H]2[C@@H](O)[C@H](O[C@H]3OC(CN)=CC[C@H]3N)[C@@H](N)C[C@H]2N)OC[C@]1(C)O [SISOMICIN] | Not Active | Not Active
CC(C)(C)NC(=O)[C@@H]1CN(Cc2cccnc2)CCN1C[C@@H](O)C[C@@H](Cc1ccccc1)C(=O)N[C@H]1c2ccccc2C[C@H]1O.O | Not Active | Not Active
COc1cc(C(=O)NC2CCCNC2)cc(OC)c1OC (centres undefined) [TROXIPIDE] | Not Active | Not Active

Biological target: T2, Neutrophil elastase (Homo sapiens, UniProt P08246)
T2 sequence (P08246 whole entry): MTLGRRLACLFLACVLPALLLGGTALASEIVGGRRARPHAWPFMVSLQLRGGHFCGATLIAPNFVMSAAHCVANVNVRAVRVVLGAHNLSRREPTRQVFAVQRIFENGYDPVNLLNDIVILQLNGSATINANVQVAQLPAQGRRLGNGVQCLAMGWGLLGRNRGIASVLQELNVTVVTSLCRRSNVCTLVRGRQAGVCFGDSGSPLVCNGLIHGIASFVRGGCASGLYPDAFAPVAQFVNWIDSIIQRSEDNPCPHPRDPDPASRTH
Experiment: not given
Type: tissue-based
Conditions: not given

Compound | IC50
CN[C@@H]1[C@@H](O)[C@@H](O[C@@H]2[C@@H](O)[C@H](O[C@H]3OC(CN)=CC[C@H]3N)[C@@H](N)C[C@H]2N)OC[C@]1(C)O [SISOMICIN] | Not Active
CC(C)(C)NC(=O)[C@@H]1CN(Cc2cccnc2)CCN1C[C@@H](O)C[C@@H](Cc1ccccc1)C(=O)N[C@H]1c2ccccc2C[C@H]1O.O | Not Active
COc1cc(C(=O)NC2CCCNC2)cc(OC)c1OC (centres undefined) [TROXIPIDE] | Not Active

Biological target: T3, Muscarinic acetylcholine receptor M4 (Homo sapiens, UniProt P08173); also: in other assays of this panel Not Active means under 50% inhibition at 10 µM
T3 sequence (P08173 whole entry): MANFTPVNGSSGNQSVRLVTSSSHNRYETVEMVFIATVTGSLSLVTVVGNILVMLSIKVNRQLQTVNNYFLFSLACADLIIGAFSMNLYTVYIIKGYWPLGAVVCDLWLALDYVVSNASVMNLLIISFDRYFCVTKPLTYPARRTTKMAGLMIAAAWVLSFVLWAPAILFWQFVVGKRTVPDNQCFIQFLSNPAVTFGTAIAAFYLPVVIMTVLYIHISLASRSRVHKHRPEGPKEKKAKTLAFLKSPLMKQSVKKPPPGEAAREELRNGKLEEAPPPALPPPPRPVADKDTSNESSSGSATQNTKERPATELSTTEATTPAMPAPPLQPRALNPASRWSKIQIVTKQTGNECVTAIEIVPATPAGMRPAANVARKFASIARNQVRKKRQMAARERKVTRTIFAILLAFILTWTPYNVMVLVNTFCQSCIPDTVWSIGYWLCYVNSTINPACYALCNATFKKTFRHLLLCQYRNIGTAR
Experiment: not given
Type: cell membranes, CHO-K1, Membrane
Conditions: cho-k1

Compound | IC50
CN[C@@H]1[C@@H](O)[C@@H](O[C@@H]2[C@@H](O)[C@H](O[C@H]3OC(CN)=CC[C@H]3N)[C@@H](N)C[C@H]2N)OC[C@]1(C)O [SISOMICIN] | Not Active
CC(C)(C)NC(=O)[C@@H]1CN(Cc2cccnc2)CCN1C[C@@H](O)C[C@@H](Cc1ccccc1)C(=O)N[C@H]1c2ccccc2C[C@H]1O.O | Not Active
COc1cc(C(=O)NC2CCCNC2)cc(OC)c1OC (centres undefined) [TROXIPIDE] | Not Active

System: not listed separately
Experiment: DRUGMATRIX: Leukotriene, BLT (LTB4) radioligand binding (ligand: [3H]LTB4)
Type: cell membranes, Membrane
Conditions: u-937; Not Active = under 50% inhibition at 10 µM

Compound | IC50 | Ki
CN[C@@H]1[C@@H](O)[C@@H](O[C@@H]2[C@@H](O)[C@H](O[C@H]3OC(CN)=CC[C@H]3N)[C@@H](N)C[C@H]2N)OC[C@]1(C)O [SISOMICIN] | Not Active | Not Active
CC(C)(C)NC(=O)[C@@H]1CN(Cc2cccnc2)CCN1C[C@@H](O)C[C@@H](Cc1ccccc1)C(=O)N[C@H]1c2ccccc2C[C@H]1O.O | Not Active | Not Active
COc1cc(C(=O)NC2CCCNC2)cc(OC)c1OC (centres undefined) [TROXIPIDE] | Not Active | Not Active

Biological target: Melanocortin receptor 5 (Homo sapiens, UniProt P33032); also: in other assays of this panel Not Active means under 50% inhibition at 10 µM
Experiment: not given
Type: cell membranes, HEK293, Membrane
Conditions: hek293

Sequence of Melanocortin receptor 5 (P33032 whole entry): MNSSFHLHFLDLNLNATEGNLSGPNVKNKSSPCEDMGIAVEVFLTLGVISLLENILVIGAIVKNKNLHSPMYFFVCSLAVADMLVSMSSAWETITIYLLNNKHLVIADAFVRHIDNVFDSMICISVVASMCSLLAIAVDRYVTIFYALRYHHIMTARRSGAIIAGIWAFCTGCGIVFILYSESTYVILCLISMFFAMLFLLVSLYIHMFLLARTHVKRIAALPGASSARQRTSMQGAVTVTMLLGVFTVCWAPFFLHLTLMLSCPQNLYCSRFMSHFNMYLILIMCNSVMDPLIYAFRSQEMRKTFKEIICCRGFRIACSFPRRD

Compound | IC50
CN[C@@H]1[C@@H](O)[C@@H](O[C@@H]2[C@@H](O)[C@H](O[C@H]3OC(CN)=CC[C@H]3N)[C@@H](N)C[C@H]2N)OC[C@]1(C)O [SISOMICIN] | Not Active
CC(C)(C)NC(=O)[C@@H]1CN(Cc2cccnc2)CCN1C[C@@H](O)C[C@@H](Cc1ccccc1)C(=O)N[C@H]1c2ccccc2C[C@H]1O.O | Not Active
COc1cc(C(=O)NC2CCCNC2)cc(OC)c1OC (centres undefined) [TROXIPIDE] | Not Active

Biological target: Insulin receptor (Rattus norvegicus, UniProt P15127); also: in other assays of this panel Not Active means under 50% inhibition at 10 µM
Experiment: not given
Type: cell membranes, Wistar, Liver, Membrane
Conditions: not given

Sequence of Insulin receptor (P15127 27-759 limits assumed): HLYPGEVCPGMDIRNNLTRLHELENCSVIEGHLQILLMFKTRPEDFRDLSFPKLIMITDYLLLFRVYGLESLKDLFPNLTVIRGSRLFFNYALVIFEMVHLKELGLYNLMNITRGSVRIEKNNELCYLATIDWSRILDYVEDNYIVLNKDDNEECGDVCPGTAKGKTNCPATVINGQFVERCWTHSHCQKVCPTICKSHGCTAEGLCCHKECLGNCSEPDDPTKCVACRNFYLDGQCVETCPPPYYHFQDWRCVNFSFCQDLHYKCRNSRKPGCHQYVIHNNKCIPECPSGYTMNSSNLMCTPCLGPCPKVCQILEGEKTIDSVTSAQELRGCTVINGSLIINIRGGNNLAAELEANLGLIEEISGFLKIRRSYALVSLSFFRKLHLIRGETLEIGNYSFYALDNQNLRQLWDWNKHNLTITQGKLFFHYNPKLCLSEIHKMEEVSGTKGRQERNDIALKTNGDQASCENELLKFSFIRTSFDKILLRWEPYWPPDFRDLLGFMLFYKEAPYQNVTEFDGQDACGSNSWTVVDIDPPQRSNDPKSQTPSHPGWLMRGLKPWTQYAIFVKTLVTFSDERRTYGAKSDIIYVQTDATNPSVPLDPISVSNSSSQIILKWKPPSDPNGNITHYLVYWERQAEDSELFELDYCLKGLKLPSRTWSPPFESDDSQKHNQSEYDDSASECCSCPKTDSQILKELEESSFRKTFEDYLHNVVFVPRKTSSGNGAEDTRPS
Sequence of Insulin receptor (P15127 764-1383 limits assumed): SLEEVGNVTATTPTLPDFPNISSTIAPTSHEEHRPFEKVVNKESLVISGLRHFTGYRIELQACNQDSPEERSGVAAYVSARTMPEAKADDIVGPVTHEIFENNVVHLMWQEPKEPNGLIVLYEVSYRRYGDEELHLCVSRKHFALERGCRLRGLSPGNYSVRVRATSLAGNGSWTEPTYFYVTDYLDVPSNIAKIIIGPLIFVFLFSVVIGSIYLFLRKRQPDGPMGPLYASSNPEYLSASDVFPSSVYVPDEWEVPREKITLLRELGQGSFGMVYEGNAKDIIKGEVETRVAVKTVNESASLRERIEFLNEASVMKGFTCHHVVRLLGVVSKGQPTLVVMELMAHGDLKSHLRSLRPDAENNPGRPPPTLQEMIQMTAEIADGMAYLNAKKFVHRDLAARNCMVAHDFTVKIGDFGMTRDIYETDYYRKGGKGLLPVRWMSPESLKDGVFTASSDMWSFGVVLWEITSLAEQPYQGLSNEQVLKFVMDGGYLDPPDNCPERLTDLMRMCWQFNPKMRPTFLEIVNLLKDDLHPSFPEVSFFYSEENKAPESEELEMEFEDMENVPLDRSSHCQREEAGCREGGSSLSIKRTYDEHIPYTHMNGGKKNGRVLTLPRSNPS

Compound | IC50
CN[C@@H]1[C@@H](O)[C@@H](O[C@@H]2[C@@H](O)[C@H](O[C@H]3OC(CN)=CC[C@H]3N)[C@@H](N)C[C@H]2N)OC[C@]1(C)O [SISOMICIN] | Not Active
CC(C)(C)NC(=O)[C@@H]1CN(Cc2cccnc2)CCN1C[C@@H](O)C[C@@H](Cc1ccccc1)C(=O)N[C@H]1c2ccccc2C[C@H]1O.O | Not Active
COc1cc(C(=O)NC2CCCNC2)cc(OC)c1OC (centres undefined) [TROXIPIDE] | Not Active

Biological target: Histamine H2 receptor (Homo sapiens, UniProt P25021); also: in other assays of this panel Not Active means under 50% inhibition at 10 µM
Experiment: not given
Type: cell membranes, CHO-K1, Membrane
Conditions: cho-k1

Compound | IC50
CN[C@@H]1[C@@H](O)[C@@H](O[C@@H]2[C@@H](O)[C@H](O[C@H]3OC(CN)=CC[C@H]3N)[C@@H](N)C[C@H]2N)OC[C@]1(C)O [SISOMICIN] | Not Active
CC(C)(C)NC(=O)[C@@H]1CN(Cc2cccnc2)CCN1C[C@@H](O)C[C@@H](Cc1ccccc1)C(=O)N[C@H]1c2ccccc2C[C@H]1O.O | Not Active
COc1cc(C(=O)NC2CCCNC2)cc(OC)c1OC (centres undefined) [TROXIPIDE] | Not Active

Biological target: Melanocortin receptor 3 (Homo sapiens, UniProt P41968); also: in other assays of this panel Not Active means under 50% inhibition at 10 µM
Experiment: not given
Type: cell membranes, Membrane
Conditions: hek293

Sequence of Melanocortin receptor 3 (P41968 whole entry): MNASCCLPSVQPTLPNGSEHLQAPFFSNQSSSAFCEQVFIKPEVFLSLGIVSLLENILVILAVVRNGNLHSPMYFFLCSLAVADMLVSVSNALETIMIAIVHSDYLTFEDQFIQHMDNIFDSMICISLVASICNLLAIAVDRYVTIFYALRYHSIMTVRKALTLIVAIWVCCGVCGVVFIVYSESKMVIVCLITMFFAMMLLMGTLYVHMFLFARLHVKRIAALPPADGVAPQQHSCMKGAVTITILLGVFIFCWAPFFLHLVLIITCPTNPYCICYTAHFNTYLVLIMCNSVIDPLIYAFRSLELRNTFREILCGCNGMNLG

Compound | IC50
CN[C@@H]1[C@@H](O)[C@@H](O[C@@H]2[C@@H](O)[C@H](O[C@H]3OC(CN)=CC[C@H]3N)[C@@H](N)C[C@H]2N)OC[C@]1(C)O [SISOMICIN] | Not Active
CC(C)(C)NC(=O)[C@@H]1CN(Cc2cccnc2)CCN1C[C@@H](O)C[C@@H](Cc1ccccc1)C(=O)N[C@H]1c2ccccc2C[C@H]1O.O | Not Active
COc1cc(C(=O)NC2CCCNC2)cc(OC)c1OC (centres undefined) [TROXIPIDE] | Not Active

Biological target: T4, Caspase-1 (Homo sapiens, UniProt P29466)
T4 sequence (P29466 whole entry): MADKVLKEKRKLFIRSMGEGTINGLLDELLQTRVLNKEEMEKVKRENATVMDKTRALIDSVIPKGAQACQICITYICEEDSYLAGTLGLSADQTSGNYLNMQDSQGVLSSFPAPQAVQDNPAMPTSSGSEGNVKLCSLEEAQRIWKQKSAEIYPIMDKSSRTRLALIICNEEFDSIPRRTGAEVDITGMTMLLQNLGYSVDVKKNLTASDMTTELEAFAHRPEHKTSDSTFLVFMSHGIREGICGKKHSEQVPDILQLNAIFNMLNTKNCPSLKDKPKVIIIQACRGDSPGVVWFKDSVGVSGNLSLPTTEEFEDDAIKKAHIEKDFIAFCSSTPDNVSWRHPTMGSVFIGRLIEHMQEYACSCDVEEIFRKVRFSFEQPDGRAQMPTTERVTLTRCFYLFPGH
Experiment: not given
Design: species or system Escherichia coli
Conditions: not given

Compound | IC50
CN[C@@H]1[C@@H](O)[C@@H](O[C@@H]2[C@@H](O)[C@H](O[C@H]3OC(CN)=CC[C@H]3N)[C@@H](N)C[C@H]2N)OC[C@]1(C)O [SISOMICIN] | Not Active
CC(C)(C)NC(=O)[C@@H]1CN(Cc2cccnc2)CCN1C[C@@H](O)C[C@@H](Cc1ccccc1)C(=O)N[C@H]1c2ccccc2C[C@H]1O.O | Not Active
COc1cc(C(=O)NC2CCCNC2)cc(OC)c1OC (centres undefined) [TROXIPIDE] | Not Active

Biological target: Sodium-dependent dopamine transporter (Homo sapiens, UniProt Q01959)
Experiment: DRUGMATRIX: Dopamine Transporter radioligand binding (ligand: [125I] RTI-55)
Type: cell membranes, CHO-K1, Membrane
Conditions: cho-k1; Not Active = under 50% inhibition at 10 µM

Sequence of Sodium-dependent dopamine transporter (Q01959 whole entry): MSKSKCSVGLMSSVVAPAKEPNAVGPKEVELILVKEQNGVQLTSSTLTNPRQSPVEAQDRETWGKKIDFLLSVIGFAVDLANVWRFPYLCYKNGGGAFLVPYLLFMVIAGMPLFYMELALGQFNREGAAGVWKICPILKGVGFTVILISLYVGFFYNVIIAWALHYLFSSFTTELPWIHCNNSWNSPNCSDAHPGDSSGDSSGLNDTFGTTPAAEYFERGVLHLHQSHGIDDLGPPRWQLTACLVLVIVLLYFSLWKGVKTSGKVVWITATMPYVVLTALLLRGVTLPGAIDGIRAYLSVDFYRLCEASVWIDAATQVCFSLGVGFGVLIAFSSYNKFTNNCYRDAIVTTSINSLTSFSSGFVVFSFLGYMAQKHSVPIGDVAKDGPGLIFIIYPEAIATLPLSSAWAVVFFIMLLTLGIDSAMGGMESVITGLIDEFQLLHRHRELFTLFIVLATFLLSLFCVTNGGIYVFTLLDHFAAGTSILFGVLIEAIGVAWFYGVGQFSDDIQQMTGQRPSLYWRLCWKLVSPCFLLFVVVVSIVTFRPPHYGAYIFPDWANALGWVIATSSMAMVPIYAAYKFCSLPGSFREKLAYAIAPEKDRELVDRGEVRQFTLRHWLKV

Compound | IC50
CN[C@@H]1[C@@H](O)[C@@H](O[C@@H]2[C@@H](O)[C@H](O[C@H]3OC(CN)=CC[C@H]3N)[C@@H](N)C[C@H]2N)OC[C@]1(C)O [SISOMICIN] | Not Active
CC(C)(C)NC(=O)[C@@H]1CN(Cc2cccnc2)CCN1C[C@@H](O)C[C@@H](Cc1ccccc1)C(=O)N[C@H]1c2ccccc2C[C@H]1O.O | Not Active
COc1cc(C(=O)NC2CCCNC2)cc(OC)c1OC (centres undefined) [TROXIPIDE] | Not Active
